# Test results from US7700617B2, “Salt of naphthyridine carboxylic acid derivative” (LG Life Sciences, Ltd., priority 1997, dated 2010).
# Tests used:
# [1] = Equilibrium moisture content determination of hydrates in desiccators of controlled relative humidity; format: physicochemical; conditions: for Relative humidity range with constant moisture content: FIGS. 3 and 4
# Description: Six saturated aqueous salt solutions were introduced into each desiccator to control the inner relative humidity to a specific value as shown in Table 3. Then, equilibrium moisture contents of n=3 hydrate and n=1.5 hydrate of Examples 2 and 3, respectively, were determined at several relative humidities.
# The sample (100 mg) was spread on a pre-weighed Petri dish and the total weight was accurately measured, then three of the sample were placed in each desiccator of Table 3. The desiccators were allowed to stand at normal temperature for 7 days and then the sample was taken to be weighed. After 13 days, one of the three samples inside each desiccator was taken and the moisture content of each was measured by the thermogravimetric analysis described in Test Example 2. Equilibrium moisture content at each relative humidity is represented in FIG. 3 (n=3 hydrate) and FIG. 4 (n=1.5 hydrate). […] Both hydrates are stable since they maintain a constant equilibrium moisture content regardless of the relative humidity change.
# [2] = Observed moisture content of the methanesulfonate hydrates; format: physicochemical; conditions: by hydration number (n)
# Source text: The moisture content of the methanesulfonate hydrates varies with the hydration number (n) of the hydrated molecule. The methanesulfonate has a molecular weight of 485.5 thus the calculated moisture content of hydrates where n is 1, 1.5, 2, 2.5, 3, 3.5 and 4 is 3.6%, […], 6.9%, 8.5%, 10.0%, 11.5% and 12.9% respectively. However, the actual moisture content of the methanesulfonate hydrates may differ from the calculated value depending on various factors including recrystallization conditions and drying conditions.
# [3] = Chemical stability at elevated temperature, decomposition by liquid chromatography; format: physicochemical; conditions: for Chemical stability compared with the anhydrate: 70° C., liquid chromatography; for Thermal stability with elapsed time: at 70° C.
# Description: The present inventors also compared the chemical stability under heating of the hydrates with that of the anhydrate in order to identify the influence of hydration on the chemical stability. In this test, the anhydrate and hydrate were each kept at 70° C. for 4 weeks, and the extent of decomposition is analyzed by liquid chromatography. No difference in the extent of decomposition was noticed between the hydrates and the anhydrate, and thus confirming that the hydrate has the same chemical stability as the anhydrate.
# The chemical stability of the n=3 hydrate of Example 2 and the n=1.5 hydrate of Example 3 and the anhydrate of Example 1 were compared at elevated temperature in order to determine the effect on chemical stability of the extent of hydration.
# The anhydrate and each of the hydrates were introduced into a glass vial and maintained at 70° C. The extent of decomposition with elapsed time was analyzed by liquid chromatography.
# [4] = Moisture sorption of the anhydrate, automatic moisture sorption analyzer; format: physicochemical; conditions: 25° C., each relative humidity 0 to 95%, in most cases
# Description: The moisture sorption velocity and the equilibrium moisture content of the anhydrate of Example 1 was determined by means of an automatic moisture sorption analyzer (MB 300G Gravimetric Sorption Analyzer). This instrument produces a specific relative humidity at a specific temperature and continuously records the weight change of a sample due to adsorption or desorption of moisture as measured by a micro balance inside the instrument. The anhydrate of Example 1 (16 mg) was loaded onto the micro balance and the moisture contained in the sample removed under a stream of dried nitrogen at 50° C. A weight change of less than 5 μg per 5 minutes was the criterion for complete dryness. Thereafter, the inner temperature was adjusted to 25° C. and the sample tested at 5% intervals whilst varying the humidity from 0 to 95%. The sample was considered to have reached equilibrium when the weight change was less than 5 μg per 5 minutes. […] It is clear from FIG. 2 that the equilibrium moisture content of the anhydrate is dependent on the relative humidity.
# [5] = test system: Staphylococcus aureus faecalis 29212; experiment: In vitro antibacterial activity, agar medium dilution method; format: cell-based; conditions: read-out: Minimum Inhibitory Concentration: MIC
# Description: (§1) In order to determine whether 7-(3-aminomethyl-4-methyloxyimino-pyrrolidin-1-yl)-1-cyclopropyl-6-fluoro-4-oxo-1,4-dihydro-1,8-naphthyridine-3-carboxylic acid methanesulfonate has the same antibacterial activity as the free base, in vitro antibacterial activity of the methanesulfonate was measured using agar medium dilution method.
# Escherichia coli 851E = experiment: as above; format: cell-based; conditions: read-out: Minimum Inhibitory Concentration: MIC
# Description: as §1
# [6] = test system: Staphylococcus aureus epidermidis 178; experiment: as above; format: cell-based; conditions: read-out: Minimum Inhibitory Concentration: MIC
# Description: as §1
# Escherichia coli 3190Y = experiment: as above; format: cell-based; conditions: read-out: Minimum Inhibitory Concentration: MIC
# Description: as §1
# [7] = test system: Klebsiella aerogenes 1976E; experiment: as above; format: cell-based; conditions: read-out: Minimum Inhibitory Concentration: MIC
# Description: as §1
# Bacillus subtilis 6633 = experiment: as above; format: cell-based; conditions: read-out: Minimum Inhibitory Concentration: MIC
# Description: as §1
# Staphylococcus aureus 77 = experiment: as above; format: cell-based; conditions: read-out: Minimum Inhibitory Concentration: MIC
# Description: as §1
# [8] = test system: Staphylococcus aureus 6538p; experiment: as above; format: cell-based; conditions: weight ratio, molecular weight not considered, read-out: Minimum Inhibitory Concentration: MIC
# Description: as §1
# [9] = test system: Pseudomonas aeruginosa 1912E; experiment: as above; format: cell-based; conditions: read-out: Minimum Inhibitory Concentration: MIC
# Description: as §1
# Escherichia coli 10536 = experiment: as above; format: cell-based; conditions: read-out: Minimum Inhibitory Concentration: MIC
# Description: as §1
# [10] = test system: Acinetobacter calcoaceticus 15473; experiment: as above; format: cell-based; conditions: read-out: Minimum Inhibitory Concentration: MIC
# Description: as §1
# Seratia marsecence 1826E = experiment: as above; format: cell-based; conditions: read-out: Minimum Inhibitory Concentration: MIC
# Description: as §1
# Micrococcus luteus 9431 = experiment: as above; format: cell-based; conditions: read-out: Minimum Inhibitory Concentration: MIC
# Description: as §1
# [11] = test system: Staphylococcus aureus epidermidis 887E; experiment: as above; format: cell-based; conditions: read-out: Minimum Inhibitory Concentration: MIC
# Description: as §1
# Proteus vulgaris 6059 = experiment: as above; format: cell-based; conditions: read-out: Minimum Inhibitory Concentration: MIC
# Description: as §1
# [12] = test system: Staphylococcus aureus giorgio; experiment: as above; format: cell-based; conditions: read-out: Minimum Inhibitory Concentration: MIC
# Description: as §1
# [13] = test system: Escherichia coli TEM5 3739E; experiment: as above; format: cell-based; conditions: TEM53739E, read-out: Minimum Inhibitory Concentration: MIC
# Description: as §1
# [14] = test system: Pseudomonas aeruginosa 10145; experiment: as above; format: cell-based; conditions: read-out: Minimum Inhibitory Concentration: MIC
# Description: as §1
# [15] = test system: Escherichia coli TEM3 3455E; experiment: as above; format: cell-based; conditions: TEM33455E, read-out: Minimum Inhibitory Concentration: MIC
# Description: as §1
# [16] = test system: Salmonella thypimurium 14028; experiment: as above; format: cell-based; conditions: read-out: Minimum Inhibitory Concentration: MIC
# Description: as §1
# [17] = test system: Staphylococcus aureus 241; experiment: as above; format: cell-based; conditions: read-out: Minimum Inhibitory Concentration: MIC
# Description: as §1
# Water solubility = conditions: 25 °C
# [18] = test system: Klebsiella aerogenes 1082E; experiment: In vitro antibacterial activity, agar medium dilution method; format: cell-based; conditions: read-out: Minimum Inhibitory Concentration: MIC
# Description: as §1
# [19] = test system: Escherichia coli TEM9 2639E; experiment: as above; format: cell-based; conditions: TEM92639E, read-out: Minimum Inhibitory Concentration: MIC
# Description: as §1
# [20] = test system: Citrobacter diversus 2046E; experiment: as above; format: cell-based; conditions: Citrobacter koseri, read-out: Minimum Inhibitory Concentration: MIC
# Description: as §1
# Enterobacter cloacae P99 = experiment: as above; format: cell-based; conditions: read-out: Minimum Inhibitory Concentration: MIC
# Description: as §1
# [21] = test system: Enterobacter cloacae 1194E; experiment: as above; format: cell-based; conditions: read-out: Minimum Inhibitory Concentration: MIC
# Description: as §1
smiles,measurement,setting,value
"CON=C1CN(c2nc3c(cc2F)c(=O)c(C(=O)O)cn3C2CC2)CC1CN.CON=C1CN(c2nc3c(cc2F)c(=O)c(C(=O)O)cn3C2CC2)CC1CN.CS(=O)(=O)O.CS(=O)(=O)O.O.O.O (stereo not drawn) [n = 1.5 hydrate, 7-(3-aminomethyl-4-methoxyiminopyrrolidin-1-yl)-1-cyclopropyl-6-fluoro-4-oxo-1,4-dihydro-1,8-naphthyridine-3-carboxylic acid methanesulfonate n=1.5 hydrate]",Relative humidity range with constant moisture content,[1],23 to 64%
same,Water taken up,[1]; above 75% relative humidity,over 10%
same,Equilibrium moisture content,[1]; relative humidity 23 to 64%,around 5%
same,Moisture Content,"[2]; listed as 1.5, hydrate",4~6 % w/w
same,Chemical stability compared with the anhydrate,[3]; 4 weeks,same degree of chemical stability as the anhydrate
same,Thermal stability with elapsed time,[3]; 1 week,97.3%
same,Thermal stability with elapsed time,[3]; 2 weeks,95.8%
same,Thermal stability with elapsed time,[3]; 3 weeks,97.2%
same,Thermal stability with elapsed time,[3]; 4 weeks,96.2%
same,Thermal stability with elapsed time,[3]; Initial,100%
CON=C1CN(c2nc3c(cc2F)c(=O)c(C(=O)O)cn3C2CC2)CC1CN.CON=C1CN(c2nc3c(cc2F)c(=O)c(C(=O)O)cn3C2CC2)CC1CN.CS(=O)(=O)O.CS(=O)(=O)O.O.O.O.O.O.O.O (stereo not drawn) [n = 3.5 hydrate],Moisture Content,[2],11~12 % w/w
"CON=C1CN(c2nc3c(cc2F)c(=O)c(C(=O)O)cn3C2CC2)CC1CN.CS(=O)(=O)O.O.O.O (stereo not drawn) [n = 3 hydrate, 7-(3-aminomethyl-4-methoxyiminopyrrolidin-1-yl)-1-cyclopropyl-6-fluoro-4-oxo-1,4-dihydro-1,8-naphthyridine-3-carboxylic acid methanesulfonate n=3 hydrate]",Relative humidity range with constant moisture content,[1],23 to 75%
same,Equilibrium moisture content,"[1]; relative humidity 23 to 75%, about 2 weeks",around 10%
same,Chemical stability compared with the anhydrate,[3]; 4 weeks,same degree of chemical stability as the anhydrate
same,Thermal stability with elapsed time,[3]; 1 week,102.4%
same,Thermal stability with elapsed time,[3]; 2 weeks,100.7%
same,Thermal stability with elapsed time,[3]; 3 weeks,99.2%
same,Thermal stability with elapsed time,[3]; 4 weeks,99.2%
same,Thermal stability with elapsed time,[3]; Initial,100%
CON=C1CN(c2nc3c(cc2F)c(=O)c(C(=O)O)cn3C2CC2)CC1CN.CON=C1CN(c2nc3c(cc2F)c(=O)c(C(=O)O)cn3C2CC2)CC1CN.CS(=O)(=O)O.CS(=O)(=O)O.O.O.O.O.O (stereo not drawn) [n = 2.5 hydrate],Moisture Content,[2],8~9 % w/w
"CON=C1CN(c2nc3c(cc2F)c(=O)c(C(=O)O)cn3C2CC2)CC1CN.CS(=O)(=O)O (stereo not drawn) [Anhydrate, 7-(3-aminomethyl-4-methoxyiminopyrrolidin-1-yl)-1-cyclopropyl-6-fluoro-4-oxo-1,4-dihydro-1,8-naphthyridine-3-carboxylic acid methanesulfonate anhydrate]",Time to reach moisture sorption equilibrium,[4],≤ 2 h
same,Thermal stability with elapsed time,[3]; 1 week,99.8%
same,Thermal stability with elapsed time,[3]; 2 weeks,98.6%
same,Thermal stability with elapsed time,[3]; 3 weeks,97.7%
same,Thermal stability with elapsed time,[3]; 4 weeks,96.7%
same,Thermal stability with elapsed time,[3]; Initial,100%
CON=C1CN(c2nc3c(cc2F)c(=O)c(C(=O)O)cn3C2CC2)CC1CN.CS(=O)(=O)O.O.O.O.O (stereo not drawn) [n = 4 hydrate],Moisture Content,[2],12~13 % w/w
"O=C(O)c1cn(C2CC2)c2cc(N3CCNCC3)c(F)cc2c1=O [Ciprofloxacin, ciprofloxacin, reference compound]",MIC,[5],0.5 µg/mL
same,MIC,Escherichia coli 851E,< 0.008 µg/mL
same,MIC,[6],128 µg/mL
same,MIC,Escherichia coli 3190Y,< 0.008 µg/mL
same,MIC,[7],0.13 µg/mL
same,MIC,Bacillus subtilis 6633,0.031 µg/mL
same,MIC,Staphylococcus aureus 77,0.25 µg/mL
same,MIC,[8],0.13 µg/mL
same,MIC,[9],0.13 µg/mL
same,MIC,Escherichia coli 10536,< 0.008 µg/mL
same,MIC,[10],0.25 µg/mL
same,MIC,Seratia marsecence 1826E,0.063 µg/mL
same,MIC,Micrococcus luteus 9431,2 µg/mL
same,MIC,[11],0.13 µg/mL
same,MIC,Proteus vulgaris 6059,0.031 µg/mL
same,MIC,[12],0.13 µg/mL
same,MIC,[13],0.13 µg/mL
same,MIC,[14],0.5 µg/mL
same,MIC,[15],0.5 µg/mL
same,MIC,[16],0.031 µg/mL
same,MIC,[17],128 µg/mL
"CO/N=C1\CN(c2nc3c(cc2F)c(=O)c(C(=O)O)cn3C2CC2)CC1CN (stereo not drawn) [Free form, 7-(3-aminomethyl-4-methoxyiminopyrrolidin-1-yl)-1-cyclopropyl-6-fluoro-4-oxo-1,4-dihydro-1,8-naphthyridine-3-carboxylic acid]",solubility,Water solubility,7 µg/mL
"CON=C1CN(c2nc3c(cc2F)c(=O)c(C(=O)O)cn3C2CC2)CC1CN.CS(=O)(=O)O (stereo not drawn) [Methanesulfonic acid salt, 7-(3-aminomethyl-4-methyloxyimino-pyrrolidin-1-yl)-1-cyclopropyl-6-fluoro-4-oxo-1,4-dihydro-1,8-naphthyridine-3-carboxylic acid methanesulfonate]",MIC,[5],0.13 µg/mL
same,MIC,Escherichia coli 851E,0.016 µg/mL
same,MIC,[6],4 µg/mL
same,MIC,[18],0.031 µg/mL
same,MIC,Escherichia coli 3190Y,0.008 µg/mL
same,MIC,[7],0.13 µg/mL
same,MIC,Bacillus subtilis 6633,0.016 µg/mL
same,MIC,Staphylococcus aureus 77,0.031 µg/mL
same,MIC,[8],0.016 µg/mL
same,MIC,[9],0.25 µg/mL
same,MIC,Escherichia coli 10536,0.008 µg/mL
same,MIC,[10],0.031 µg/mL
same,MIC,Seratia marsecence 1826E,0.13 µg/mL
same,MIC,[19],0.031 µg/mL
same,MIC,Micrococcus luteus 9431,0.13 µg/mL
same,MIC,[20],0.031 µg/mL
same,MIC,[11],0.016 µg/mL
same,MIC,Proteus vulgaris 6059,0.25 µg/mL
same,MIC,Enterobacter cloacae P99,0.016 µg/mL
same,MIC,[12],0.016 µg/mL
same,MIC,[13],0.13 µg/mL
same,MIC,[14],0.5 µg/mL
same,MIC,[21],0.031 µg/mL
same,MIC,[15],0.25 µg/mL
same,MIC,[16],0.031 µg/mL
same,MIC,[17],4 µg/mL
